# Data taken from paper PMC10855164, “Ligand-Based Design of Selective Peptidomimetic uPA and TMPRSS2 Inhibitors with Arg Bioisosteres” (International Journal of Molecular Sciences, 2024).
# Biological target: T1, factor Xa (Homo sapiens, UniProt P00742)
# T1 construct: purchased Bio-techne
# Experiment: colorimetric enzyme inhibition assay, factor Xa (Z-D-Arg-Gly-Arg-pNA)
# Type: biochemical
# Conditions: from IC50 by Cheng-Prusoff; n.a. = not active, <80% inhibition at 20 µM
# Protocol: (§1) The inhibitory activity of the synthesized compounds towards the respective main- and off-target proteases was measured via fluorometric and colorimetric assays. Thus, fluorogenic AMC- or colorimetric pNA-based substrates with a peptide sequence suitable for the tested protease were utilized (see Supplementary Figure S2). At first, the compounds were screened against […] proteases (uPA, TMPRSS2, matriptase, tPA, thrombin, factor Xa) at 20 µM, and a cut-off value of 80% inhibition at this concentration was set, for the differentiation between nonactive (n.a.) and active inhibitors. Due to the reversible inhibition mechanism of the ketobenzothiazole derivates, the IC50 values were determined with Graphpad Prism 9, and afterwards converted to the corresponding Ki values for an adequate comparison between the inhibitory activities of the compounds toward all tested proteases. The Ki values were calculated using the Cheng–Prusoff equation [43].
# (§2) Fluorometric inhibition assays
# (§3) The inhibitory activities of the compounds against the proteases were determined by enzyme inhibition assays with fluorogenic or colorimetry-based substrates. The fluorescence, caused by cleaved AMC from the fluorogenic substrates (uPA, matriptase, TMPRSS2, thrombin), was measured in white flat-bottom 96-well plates from Greiner Bio-One using a Tecan Infinite F200 Pro plate reader. The absorption, caused by cleaved pNA from colorimetric substrates (factor Xa and tPA), was measured in transparent flat-bottom 96-well plates from Greiner Bio-One using a Tecan Spark 10M plate reader. All measurements with the main-target proteases (uPA and TMRPSS2) were performed as triplicates and with the off-target proteases (matriptase, factor Xa, tPA, thrombin) as duplicates. The substrates and the compounds were prepared as stock solutions in DMSO. Each well contained a total volume of 200 µL, consisting of 185 µL buffer, 5 µL inhibitor in DMSO or pure DMSO as negative control, 5 µL substrate in DMSO and 5 µL enzyme solution in buffer. Dilution series were prepared for the determination of the inhibition constants. The fluorescence signal and absorbance were measured every 30 s for 10 min at 25 or 37 °C with the corresponding excitation/emission (λex = 380 nm / λem = 460 nm) and absorbance (λabs = 405 nm) wavelengths, depending on the targeted protease. IC50 values for the reversible inhibitors were calculated with Graphpad Prism 9 by fitting the remaining enzymatic activity to the four parameter IC50 equation with Y [%] as the residual enzyme activity , Ymax as the maximum value of the dose response curve at inhibitor concentrations [I] = 0 µM, Ymin as the minimum value at high inhibitor concentrations and s as the hill coefficient.[1] The fluorescence progress curves and sigmoidal dose-response curve for inhibition of uPa by compound 38 is shown exemplary in Figure S2. […]
# (§4) Due to the dependence of the IC50 value on the substrate affinity and concentration, the Ki values were calculated with the Cheng-Prusoff equation, using the final substrate concentration [S] and the Michaelis-Menten constant KM, (2) for appropriate comparison of the inhibitory activities to the other enzymes and inhibitors.[1]
# (§5) KM values were determined by fitting to the Michaelis-Menten equation using Graphpad Prism 9 with v [ΔF/min] as the substrate hydrolysis rate, vmax as the maximum slope of the dose-response curve, and the substrate [S] concentration.[1] The different substrates were serially diluted in DMSO. The measurement was done in analogy to the determination of the inhibitory activity, but with 5 µL pure DMSO instead of inhibitor solution. […]
# (§6) The following buffers and substrates were used for the respective assays: uPA (50 mM Tris HCl pH = 7.9, 150 mM […]
# (§7) TMPRSS2 (25 mM Tris HCl pH = 8.0, 150 mM NaCl, 5 mM CaCl2, 0.001% TX-100, 100 µM Boc-Gln-Ala-Arg-AMC (KM: 68.63 ± 6.64 µM), 25 °C, 3 nM TMPRSS2)[3]; matriptase (50 mM Tris HCl pH = 8.0, 150 mM NaCl, 5 mM CaCl2, […]
# T1 sequence (P00742 235-488 limits assumed): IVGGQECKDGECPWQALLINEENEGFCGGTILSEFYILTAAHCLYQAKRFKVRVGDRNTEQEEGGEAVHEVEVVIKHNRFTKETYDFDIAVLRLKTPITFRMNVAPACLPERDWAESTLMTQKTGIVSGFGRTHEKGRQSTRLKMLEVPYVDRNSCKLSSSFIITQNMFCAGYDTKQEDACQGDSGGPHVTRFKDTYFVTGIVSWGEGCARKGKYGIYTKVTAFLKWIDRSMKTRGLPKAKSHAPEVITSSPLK
# T1 sequence (P00742 41-179 partner limits assumed): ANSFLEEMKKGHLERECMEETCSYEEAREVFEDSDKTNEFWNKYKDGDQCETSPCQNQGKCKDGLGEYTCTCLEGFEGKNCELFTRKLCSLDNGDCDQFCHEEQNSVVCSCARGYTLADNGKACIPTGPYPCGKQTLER
Structure (SMILES),Ki [nM],Ki Factor Xa
CC(=O)NCC(=O)NC(C(=O)NC(C)C(=O)NC(CCCNC(=N)N)C(=O)c1nc2ccc(Cl)cc2s1)C(C)O (stereo not drawn) [Compound 14c],2450 ± 99,–
CC(=O)NCC(=O)N[C@H](C(=O)N[C@@H](C)C(=O)N[C@@H](Cc1cccc(NC(=N)N)c1)C(=O)c1nc2ccccc2s1)[C@H](C)O [Compound 45],–,did not show inhibition
CC(=O)NCC(=O)NC(C(=O)NC(C)C(=O)NC(CCCNC(=N)N)C(=O)c1nc2ccc(Br)cc2s1)C(C)O (stereo not drawn) [Compound 14d],2850 ± 844,–

# Same assay, conditions: quotient Ki factor Xa / Ki uPA
row,Structure (SMILES),Selectivity index [SI] Factor Xa
1,CC(=O)NCC(=O)NC(C(=O)NC(C)C(=O)NC(CCCNC(=N)N)C(=O)c1nc2ccc(Cl)cc2s1)C(C)O (stereo not drawn) [Compound 14c],30
2,CC(=O)NCC(=O)NC(C(=O)NC(C)C(=O)NC(CCCNC(=N)N)C(=O)c1nc2ccc(Br)cc2s1)C(C)O (stereo not drawn) [Compound 14d],47

# Biological target: T2, matriptase (Homo sapiens, UniProt Q9Y5Y6)
# T2 construct: catalytic domain of matriptase (uniport: Q9Y5Y6 aa 596–855); hexa-histidine (N); made in house; host or cells: Escherichia coli BL21 Gold (DE3)
# T2 sequence (Q9Y5Y6 596-855): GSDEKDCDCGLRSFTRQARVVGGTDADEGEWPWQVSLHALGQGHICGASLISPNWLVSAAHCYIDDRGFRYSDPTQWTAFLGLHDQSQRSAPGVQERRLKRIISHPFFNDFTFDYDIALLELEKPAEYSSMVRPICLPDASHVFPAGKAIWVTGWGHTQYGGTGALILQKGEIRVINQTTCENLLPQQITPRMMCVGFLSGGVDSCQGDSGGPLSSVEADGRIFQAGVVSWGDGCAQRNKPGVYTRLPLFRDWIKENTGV
# Experiment: fluorometric enzyme inhibition assay, matriptase (Boc-Leu-Arg-Arg-AMC)
# Type: biochemical
# Conditions: from IC50 by Cheng-Prusoff; n.a. = not active, <80% inhibition at 20 µM
# Protocol: as §1, §2, §3, §4, §5, §6, §7
Structure (SMILES),Ki [nM],Ki Matriptase
CC(=O)NCC(=O)NC(C(=O)NC(C)C(=O)NC(CCCNC(=N)N)C(=O)c1nc2ccc(Cl)cc2s1)C(C)O (stereo not drawn) [Compound 14c],59 ± 9,–
CC(=O)NCC(=O)N[C@H](C(=O)N[C@@H](C)C(=O)N[C@@H](Cc1cccc(NC(=N)N)c1)C(=O)c1nc2ccccc2s1)[C@H](C)O [Compound 45],–,did not show inhibition
CC(=O)NCC(=O)NC(C(=O)NC(C)C(=O)NC(CCCNC(=N)N)C(=O)c1nc2ccc(Br)cc2s1)C(C)O (stereo not drawn) [Compound 14d],38 ± 2,–

# Same assay, conditions: quotient Ki matriptase / Ki uPA
row,Structure (SMILES),Selectivity index [SI] Matriptase
1,CC(=O)NCC(=O)NC(C(=O)NC(C)C(=O)NC(CCCNC(=N)N)C(=O)c1nc2ccc(Cl)cc2s1)C(C)O (stereo not drawn) [Compound 14c],0.7
2,CC(=O)NCC(=O)NC(C(=O)NC(C)C(=O)NC(CCCNC(=N)N)C(=O)c1nc2ccc(Br)cc2s1)C(C)O (stereo not drawn) [Compound 14d],0.6

# Biological target: T3, thrombin (Homo sapiens, UniProt P00734)
# T3 construct: purchased Bio-techne
# Experiment: fluorometric enzyme inhibition assay, thrombin (Z-Gly-Gly-Arg-AMC)
# Type: biochemical
# Conditions: from IC50 by Cheng-Prusoff; n.a. = not active, <80% inhibition at 20 µM
# Protocol: as §1, §2, §3, §4, §5, §6, §7
Structure (SMILES),Ki [nM],Ki Thrombin
CC(=O)NCC(=O)NC(C(=O)NC(C)C(=O)NC(CCCNC(=N)N)C(=O)c1nc2ccc(Cl)cc2s1)C(C)O (stereo not drawn) [Compound 14c],456 ± 72,–
CC(=O)NCC(=O)N[C@H](C(=O)N[C@@H](C)C(=O)N[C@@H](Cc1cccc(NC(=N)N)c1)C(=O)c1nc2ccccc2s1)[C@H](C)O [Compound 45],–,did not show inhibition
CC(=O)NCC(=O)NC(C(=O)NC(C)C(=O)NC(CCCNC(=N)N)C(=O)c1nc2ccc(Br)cc2s1)C(C)O (stereo not drawn) [Compound 14d],450 ± 69,–

# Same assay, conditions: quotient Ki thrombin / Ki uPA
row,Structure (SMILES),Selectivity index [SI] Thrombin
1,CC(=O)NCC(=O)NC(C(=O)NC(C)C(=O)NC(CCCNC(=N)N)C(=O)c1nc2ccc(Cl)cc2s1)C(C)O (stereo not drawn) [Compound 14c],5
2,CC(=O)NCC(=O)NC(C(=O)NC(C)C(=O)NC(CCCNC(=N)N)C(=O)c1nc2ccc(Br)cc2s1)C(C)O (stereo not drawn) [Compound 14d],8

# Biological target: T4, tPA (Homo sapiens, UniProt P00750)
# T4 construct: purchased Sigma Aldrich
# Experiment: colorimetric enzyme inhibition assay, tPA (N-methylsulfonyl-D-Phe-Gly-Arg-pNA)
# Type: biochemical
# Conditions: from IC50 by Cheng-Prusoff; n.a. = not active, <80% inhibition at 20 µM
# Protocol: as §1, §2, §3, §4
# KM values were determined by fitting to the Michaelis-Menten equation using Graphpad Prism 9 with v [ΔF/min] as the substrate hydrolysis rate, vmax as the maximum slope of the dose-response curve, and the substrate [S] concentration.[1] The different substrates were serially diluted in DMSO. […]
# T4 sequence (P00750 36-562): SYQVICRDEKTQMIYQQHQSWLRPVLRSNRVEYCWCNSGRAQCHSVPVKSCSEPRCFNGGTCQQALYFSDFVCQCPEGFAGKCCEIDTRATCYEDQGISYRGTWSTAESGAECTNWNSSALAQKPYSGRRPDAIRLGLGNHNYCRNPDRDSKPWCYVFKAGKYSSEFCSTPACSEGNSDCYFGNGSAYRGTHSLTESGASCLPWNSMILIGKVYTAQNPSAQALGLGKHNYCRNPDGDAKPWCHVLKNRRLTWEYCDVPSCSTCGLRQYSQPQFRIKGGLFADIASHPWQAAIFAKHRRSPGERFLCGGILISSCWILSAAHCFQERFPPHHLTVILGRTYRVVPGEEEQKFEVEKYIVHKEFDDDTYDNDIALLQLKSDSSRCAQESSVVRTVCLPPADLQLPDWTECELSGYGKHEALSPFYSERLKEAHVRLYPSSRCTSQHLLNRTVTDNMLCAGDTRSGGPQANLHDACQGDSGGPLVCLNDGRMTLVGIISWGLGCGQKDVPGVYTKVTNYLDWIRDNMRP
row,Structure (SMILES),Ki tPA
1,CC(=O)NCC(=O)N[C@H](C(=O)N[C@@H](C)C(=O)N[C@@H](Cc1cccc(NC(=N)N)c1)C(=O)c1nc2ccccc2s1)[C@H](C)O [Compound 45],did not show inhibition

# Biological target: T5, uPA (Homo sapiens, UniProt P00749)
# T5 construct: purchased Sigma Aldrich
# Experiment: fluorometric enzyme inhibition assay, uPA (Z-Gly-Gly-Arg-AMC)
# Type: biochemical
# Conditions: from IC50 by Cheng-Prusoff; n.a. = not active, <80% inhibition at 20 µM
# Protocol: as §1, §2
# The inhibitory activities of the compounds against the proteases were determined by enzyme inhibition assays with fluorogenic or colorimetry-based substrates. The fluorescence, caused by cleaved AMC from the fluorogenic substrates (uPA, matriptase, TMPRSS2, thrombin), was measured in white flat-bottom 96-well plates from Greiner Bio-One using a Tecan Infinite F200 Pro plate reader. The absorption, caused by cleaved pNA from colorimetric substrates (factor Xa and tPA), was measured in transparent flat-bottom 96-well plates from Greiner Bio-One using a Tecan Spark 10M plate reader. All measurements with the main-target proteases (uPA and TMRPSS2) were performed as triplicates and with the off-target proteases (matriptase, factor Xa, tPA, thrombin) as duplicates. The substrates and the compounds were prepared as stock solutions in DMSO. Each well contained a total volume of 200 µL, consisting of 185 µL buffer, 5 µL inhibitor in DMSO or pure DMSO as negative control, 5 µL substrate in DMSO and 5 µL enzyme solution in buffer. Dilution series were prepared for the determination of the inhibition constants. The fluorescence signal and absorbance were measured every 30 s for 10 min at 25 or 37 °C with the corresponding excitation/emission (λex = 380 nm / λem = 460 nm) and absorbance (λabs = 405 nm) wavelengths, depending on the targeted protease. IC50 values for the reversible inhibitors were calculated with Graphpad Prism 9 by fitting the remaining enzymatic activity to the four parameter IC50 equation with Y [%] as the residual enzyme activity , Ymax as the maximum value of the dose response curve at inhibitor concentrations [I] = 0 µM, Ymin as the minimum value at high inhibitor concentrations and s as the hill coefficient.[1] The fluorescence progress curves and sigmoidal dose-response curve for inhibition of uPa by compound 38 is shown exemplary in Figure S2.
# Figure S2: (left) Fluorescence progress curves for inhibition of uPa by cpd. 38. (right) Plot showing the respective IC50 value […]
# as §4
# as §5, with “solution. The fluorescence progress curves and Michaelis-Menten curve of the specific substrate of uPA is shown exemplarily” for “solution.”
# Figure S3: (left) Fluorescence progress curves of cleavage of Z-Gly-Gly-Arg-AMC by uPA. (right) Michaelis-Menten curve […]
Structure (SMILES),Ki [nM],Ki uPA
CC(=O)NCC(=O)NC(C(=O)NC(C)C(=O)NC(CCCNC(=N)N)C(=O)c1nc2ccc(Cl)cc2s1)C(C)O (stereo not drawn) [Compound 14c],82 ± 6,–
CC(=O)NCC(=O)N[C@H](C(=O)N[C@@H](C)C(=O)N[C@@H](Cc1cccc(NC(=N)N)c1)C(=O)c1nc2ccccc2s1)[C@H](C)O [Compound 45],–,did not show inhibition
CC(=O)NCC(=O)NC(C(=O)NC(C)C(=O)NC(CCCNC(=N)N)C(=O)c1nc2ccc(Br)cc2s1)C(C)O (stereo not drawn) [Compound 14d],60 ± 15,–

# Biological target: T6, TMPRSS2 (Homo sapiens, UniProt O15393)
# T6 construct: purchased Cusabio
# Experiment: fluorometric enzyme inhibition assay, TMPRSS2 (Boc-Gln-Ala-Arg-AMC)
# Type: biochemical
# Conditions: from IC50 by Cheng-Prusoff; n.a. = not active, <80% inhibition at 20 µM
# Protocol: as §1, §2, §3, §4, §5, §6, §7
# T6 sequence (O15393 whole entry): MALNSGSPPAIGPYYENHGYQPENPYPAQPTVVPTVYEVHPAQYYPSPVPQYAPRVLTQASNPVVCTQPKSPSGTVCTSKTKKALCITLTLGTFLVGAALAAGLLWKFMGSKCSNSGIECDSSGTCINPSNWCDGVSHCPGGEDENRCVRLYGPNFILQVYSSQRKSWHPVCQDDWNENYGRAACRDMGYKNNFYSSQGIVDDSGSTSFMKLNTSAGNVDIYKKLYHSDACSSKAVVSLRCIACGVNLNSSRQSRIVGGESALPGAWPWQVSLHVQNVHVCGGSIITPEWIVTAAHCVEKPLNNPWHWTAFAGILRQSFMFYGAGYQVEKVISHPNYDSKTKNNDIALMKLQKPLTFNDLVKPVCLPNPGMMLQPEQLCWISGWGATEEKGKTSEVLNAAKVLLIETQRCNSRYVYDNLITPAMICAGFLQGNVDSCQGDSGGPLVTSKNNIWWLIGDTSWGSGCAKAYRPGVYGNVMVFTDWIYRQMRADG
Structure (SMILES),Ki [nM],Ki TMPRSS2
CC(=O)NCC(=O)NC(C(=O)NC(C)C(=O)NC(CCCNC(=N)N)C(=O)c1nc2ccc(Cl)cc2s1)C(C)O (stereo not drawn) [Compound 14c],9 ± 1,–
CC(=O)NCC(=O)N[C@H](C(=O)N[C@@H](C)C(=O)N[C@@H](Cc1cccc(NC(=N)N)c1)C(=O)c1nc2ccccc2s1)[C@H](C)O [Compound 45],–,did not show inhibition
CC(=O)NCC(=O)NC(C(=O)NC(C)C(=O)NC(CCCNC(=N)N)C(=O)c1nc2ccc(Br)cc2s1)C(C)O (stereo not drawn) [Compound 14d],6 ± 1,–

# Same assay, conditions: quotient Ki TMPRSS2 / Ki uPA
row,Structure (SMILES),Selectivity index [SI] TMPRSS2
1,CC(=O)NCC(=O)NC(C(=O)NC(C)C(=O)NC(CCCNC(=N)N)C(=O)c1nc2ccc(Cl)cc2s1)C(C)O (stereo not drawn) [Compound 14c],0.1
2,CC(=O)NCC(=O)NC(C(=O)NC(C)C(=O)NC(CCCNC(=N)N)C(=O)c1nc2ccc(Br)cc2s1)C(C)O (stereo not drawn) [Compound 14d],0.1
